According to patent publication US20240270762A1, “PENICILLIN-BINDING PROTEIN INHIBITORS” (priority 2021, published 2024):
Values after ≈ are worked out from the molar mass of the structure shown.

Assays:
P. aeruginosa ATCC 35151 = assay: microbe, parasite or virus in culture; format: cell-based; conditions: Pseudomonas aeruginosa, ATCC35151, read-out: MIC P. aeruginosa ATCC 35151
A. baumannii ATCC 19606 = assay: microbe, parasite or virus in culture; format: cell-based; conditions: Acinetobacter baumannii, ATCC19606, read-out: MIC, A. baumannii ATCC 19606
E. coli AG100A = assay: Broth microdilution MIC in CAMHB; format: cell-based; conditions: Escherichia coli, read-out: MIC E. coli AG100A
E. coli AG100 = assay: microbe, parasite or virus in culture; format: cell-based; conditions: Escherichia coli, AG100, read-out: MIC E. coli AG100
P. aeruginosa ATCC 27853 = assay: microbe, parasite or virus in culture; format: cell-based; conditions: Pseudomonas aeruginosa, ATCC27853, read-out: MIC P. aeruginosa ATCC 27853
K. pneumoniae SI-117 = assay: microbe, parasite or virus in culture; format: cell-based; conditions: Klebsiella pneumoniae, SI117, read-out: MIC K. pneumoniae SI-117
E. coli D22 = assay: microbe, parasite or virus in culture; format: cell-based; conditions: Escherichia coli, D22, read-out: MIC E. coli D22
K. pneumoniae UMM = assay: microbe, parasite or virus in culture; format: cell-based; conditions: Klebsiella pneumoniae, read-out: MIC K. pneumoniae UMM
[1] = molecular target: T1, PBP2 from Neisseria gonorrhoeae (FA19) (Neisseria gonorrhoeae, UniProt P08149); assay: Bocillin-FL fluorescence polarization competition binding, N. gonorrhoeae PBP2; conditions: fluorescence polarization competition binding assay using Bocillin-FL, read-out: N. gonorrhoeae PBP2 Potency
T1 construct: made in house
T1 sequence (P08149 whole entry): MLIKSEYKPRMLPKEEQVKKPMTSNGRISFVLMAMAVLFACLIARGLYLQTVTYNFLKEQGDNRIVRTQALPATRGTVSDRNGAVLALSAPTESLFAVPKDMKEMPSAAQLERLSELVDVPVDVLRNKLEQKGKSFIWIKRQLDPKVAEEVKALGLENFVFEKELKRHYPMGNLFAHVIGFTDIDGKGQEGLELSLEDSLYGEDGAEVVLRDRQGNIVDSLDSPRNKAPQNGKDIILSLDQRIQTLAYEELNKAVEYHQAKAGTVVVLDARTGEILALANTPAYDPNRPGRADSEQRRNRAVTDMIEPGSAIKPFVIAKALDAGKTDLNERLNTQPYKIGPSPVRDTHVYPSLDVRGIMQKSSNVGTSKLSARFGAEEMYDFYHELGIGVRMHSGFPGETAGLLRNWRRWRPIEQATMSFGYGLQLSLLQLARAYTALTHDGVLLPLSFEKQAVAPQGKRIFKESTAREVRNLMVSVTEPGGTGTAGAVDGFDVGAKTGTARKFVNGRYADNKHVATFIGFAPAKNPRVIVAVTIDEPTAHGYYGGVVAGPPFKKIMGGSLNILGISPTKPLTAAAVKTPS
Procedure, shortened: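 Fluorescence polarization competition with 0.1 μM Bocillin-FL (fluorescent penicillin V) against 0.25 μM N. gonorrhoeae FA19 PBP2 in 50 mM Hepes pH 8.0, 300 mM NaCl, 10% glycerol. Boronic acid inhibitors were preincubated with PBP, then Bocillin-FL was added and FP read (490/520 nm) up to 60 min. EC50 is the concentration halving PBP-bound Bocillin-FL.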

SMILES	MIC (P. aeruginosa ATCC 35151)	MIC (A. baumannii ATCC 19606)	MIC (E. coli AG100A)	MIC (E. coli AG100)	MIC (P. aeruginosa ATCC 27853)	MIC (K. pneumoniae SI-117)	MIC (E. coli D22)	MIC (K. pneumoniae UMM)	EC50 [1]
O=C(O)c1cccc2c1OB(O)[C@@H](NC(=O)[C@H](NC(=O)c1cnc3n(c1=O)CCS3)c1ccc(P(=O)(O)O)cc1)C2 (single isomer, unassigned) [Example 197]	< 1 µg/mL	> 128 µg/mL	> 128 µg/mL	> 128 µg/mL	> 128 µg/mL	> 128 µg/mL	8 to 16 µg/mL (≈ 13.3 to 26.7 µM)	> 128 µg/mL	
O=C(O)c1cccc2c1OB(O)[C@@H](NC(=O)[C@@H](NC(=O)c1cnc3n(c1=O)CCS3)c1ccc(P(=O)(O)O)cc1)C2 (single isomer, unassigned) [Example 196]	8 to 16 µg/mL (≈ 13.3 to 26.7 µM)	> 128 µg/mL	> 128 µg/mL	> 128 µg/mL	> 128 µg/mL	> 128 µg/mL	> 128 µg/mL	> 128 µg/mL	
CCN1CCN(C(=O)NC(C(=O)N[C@H]2Cc3cccc(C(=O)O)c3OB2O)c2ccc(P(=O)(O)O)c(F)c2O)C(=O)C1=O (stereo partly drawn) [Example 198, (3R)-3-(2-(4-ethyl-2,3-dioxopiperazine-1-carboxamido)-2-(3-fluoro-2-hydroxy-4-phosphonophenyl)acetamido)-2-hydroxy-3,4-dihydro-2H-benzo[e][1,2]oxaborinine-8-carboxylic acid]	8 to 16 µg/mL (≈ 12.9 to 25.7 µM)	32 to 64 µg/mL (≈ 51.4 to 103 µM)	32 to 64 µg/mL (≈ 51.4 to 103 µM)	> 128 µg/mL	> 128 µg/mL	> 128 µg/mL	8 to 16 µg/mL (≈ 12.9 to 25.7 µM)	32 to 64 µg/mL (≈ 51.4 to 103 µM)	< 10 µM
